# Where “and” joins values, the source holds several entries; their conditions need not be identical. Equal values may be shown once. Entries after “also recorded” stand apart in the source; their conditions may differ.
# Key:
# NCI-H1792 = experiment: Proliferation inhibition, non-small cell lung cancer cell line NCI-H1792; type: cell-based; conditions: Homo sapiens, NCI-H1792, 72 h
# Procedure: (§1) Sixteen non-small cell lung cancer cell lines, including NCI-H1792, NCI-H1703, NCI-H441, SNU-761, NCI-H1975, NCI-H358, NCI-H1838, NCI-H1915, A549, SK-MES-1, NCI-H292, PC-9, NCI-H460, NCI-H23, NCI-H1581, and HLF, were used for the proliferation inhibition assay of the present invention compound. […] The cell detection equipment used was In Cell Analyzer 2200 (GE Healthcare).
# (§2) With 60 μM as the initial concentration, ten points were obtained by serial five-fold dilution.
# (§3) Each kind of cell in logarithmic growth phase was inoculated with 4000 cells/100 μl/well into a black transparent bottom 96-well plate and cultured overnight at 37° C. The next day, the plate was taken out, and 20 μL of the prepared sample dilutions was added to each well. The plate was then subjected to treatment at 37° C. for 72 hours. After the treatment period of 72 hours, the plate was taken out and 50 μL of neutral formaldehyde fixative (formaldehyde: PBS=1:9, 50 μl/well) was added to each well. The plate was then fixed at room temperature for 10-30 minutes. Subsequently, the wells were washed twice with 1× PBS (100 μl/well) and treated with 0.2% Triton™-X100 for 5-10 minutes to permeabilize the cells. […] The inhibitory rates of each compound at different concentration points were calculated by using the following formula, and IC50 values were obtained through curve fitting using GraphPad Prism 6.0 software.
# NCI-H1703 = experiment: Proliferation inhibition, non-small cell lung cancer cell line NCI-H1703; type: cell-based; conditions: Homo sapiens, NCI-H1703, 72 h
# Procedure: as §1, §2, §3
# NCI-H441 = experiment: Proliferation inhibition, non-small cell lung cancer cell line NCI-H441; type: cell-based; conditions: Homo sapiens, NCI-H441, 72 h
# Procedure: as §1, §2, §3
# NCI-H358 = experiment: Proliferation inhibition, non-small cell lung cancer cell line NCI-H358; type: cell-based; conditions: Homo sapiens, NCI-H358, 72 h
# Procedure: as §1, §2, §3
# NCI-H1915 = experiment: Proliferation inhibition, non-small cell lung cancer cell line NCI-H1915; type: cell-based; conditions: Homo sapiens, NCI-H1915, 72 h
# Procedure: as §1, §2, §3
# A549 = experiment: Proliferation inhibition, non-small cell lung cancer cell line A549; type: cell-based; conditions: Homo sapiens, A549, 72 h
# Procedure: as §1, §2, §3
# SK-MES-1 = experiment: Proliferation inhibition, non-small cell lung cancer cell line SK-MES-1; type: cell-based; conditions: Homo sapiens, SK-MES-1, 72 h
# Procedure: as §1, §2, §3
# NCI-H292 = experiment: Proliferation inhibition, non-small cell lung cancer cell line NCI-H292; type: cell-based; conditions: Homo sapiens, NCI-H292, 72 h
# Procedure: as §1, §2, §3
# PC-9 = experiment: Proliferation inhibition, non-small cell lung cancer cell line PC-9; type: cell-based; conditions: Homo sapiens, PC-9, 72 h
# Procedure: as §1, §2, §3
# NCI-H2228 xenograft = experiment: Human non-small cell lung cancer NCI-H2228 xenograft mouse model; type: in vivo, mice
# Text: (§4) The formula for calculating tumor volume was: Tumor Volume (mm^3)=½×(a×b^2) (where “a” represents the long diameter and “b” represents the short diameter).
# (§5) The relative tumor growth rate (T/C) is the percentage value of the relative tumor volume or weight between the treatment group and the control group at a certain time point. The calculation formula is as follows: • T/C(%)=TRTV/CRTV×100% (TRTV: Average RTV of the treatment group; CRTV: Average RTV of the Vehicle group; RTV=Vt/V0, where V0 is the tumor volume of the animal at the time of grouping and Vt is the tumor volume of the animal after treatment).
# (§6) (T and C are the relative tumor volume (RTV) or weight (TW) of the treatment group and control group at a specific time point, respectively).
# Human non-small cell lung cancer cells NCI-H2228 were cultured in RPMI-1640 medium containing 10% fetal bovine serum. Log-phase NCI-H2228 cells were collected, suspended in PBS to an appropriate concentration, and mixed with extracellular matrix gel in a 1:1 ratio for subcutaneous tumor implantation in mice. Twenty female mice were subcutaneously implanted with NCI-H2228 cells on the right side. The cells were suspended in PBS and mixed evenly with matrix gel in a 1:1 ratio (0.1 ml per mouse). When the average tumor volume reached 143 mm^3, the mice were randomly divided into groups based on tumor size. The groups received either the solvent or Compound A from Example 1 (50 mg/kg), administrated by oral intragastric administration once a day for 28 days. Tumor volume and body weight changes were regularly observed. All animals were euthanized on day 50 after cell inoculation. The tumors were weighed and photographed. The calculation methods for tumor volume, relative tumor growth rate (T/C), and tumor growth inhibition rate (TGI) were shown in Example 3.
# NCI-H1975 xenograft = experiment: Human non-small cell lung cancer NCI-H1975 xenograft mouse model; type: in vivo, Balb/c nude mice; conditions: for T/C / TGI / Tumor relative volume (x ± S) / Tumor volume (x ± S): 16 days after administration; for Body weight change: Day 20 of treatment
# Text: as §4, §5, §6
# NCI-H1975 cells were cultured in RPMI1640 medium containing 10% fetal bovine serum. Log-phase NCI-H1975 cells were collected, suspended in PBS to an appropriate concentration, and used for subcutaneous tumor implantation in Balb/c nude mice. Each female mouse was implanted with 0.1 ml of NCI-H1975 cells subcutaneously. When the average tumor volume reached 171 mm^3, the mice were randomly divided into groups based on tumor size.
# The positive control drugs were Palbociclib and Abemaciclib.
# Each group consisted of 8 mice, and oral gavage administration was performed once daily for a total of 21 days. Tumor volume and body weight changes were observed regularly, and efficacy evaluation was conducted based on relative tumor proliferation rate (T/C) and relative tumor growth inhibition rate (TGI). The calculation methods for tumor volume, T/C, and TGI are described in Example 3.
# [1] = 50 mg/kg oral once a day for 28 days, day 50 post-implantation
# [2] = 50 mg/kg oral once a day, treatment period
# [3] = 10 mg/kg oral gavage once daily
# [4] = 25 mg/kg oral gavage once daily
# [5] = 50 mg/kg oral gavage once daily
structure (smiles),measurement,setting,value
"CC1=Nc2c(F)cc(-c3nc(Nc4ccc(C5CCN(C)CC5)cn4)ncc3F)cc2C12CCCC2.O=C(O)/C=C/C(=O)O [Compound A, Fumarate salt of 5-fluoro-4-(7′-fluoro-2′-methylspiro[cyclopentane-1,3′-indol]-5′-yl)-N-(5-(1-methylpiperidin-4-yl)pyridin-2-yl)pyrimidine-2-amine]",IC50,NCI-H1792,3 nM
same,IC50,NCI-H1703,3 nM
same,IC50,NCI-H441,7 nM
same,IC50,NCI-H358,17 nM
same,IC50,NCI-H1915,53 nM
same,IC50,A549,66 nM
same,IC50,SK-MES-1,67 nM
same,IC50,NCI-H292,73 nM
same,IC50,PC-9,180 nM
same,T/C,NCI-H2228 xenograft; [1],64%
same,TGI,NCI-H2228 xenograft; [1],36%
same,Tumor relative volume (x ± SEM),NCI-H2228 xenograft; [1],3.38 ± 0.23
same,Tumor volume (x ± SEM),NCI-H2228 xenograft; [1],506.53 mm^3
same,Tumor volume (x ± SEM),"NCI-H2228 xenograft; 50 mg/kg oral once a day for 28 days, day 50 post-implantation, listed as CompoundA",506.53 ± 44.73 mm^3
same,Body weight change,NCI-H2228 xenograft; [2],slight weight loss
same,Tolerability / adverse effects,NCI-H2228 xenograft; [2],good tolerability; also recorded: no obvious adverse effects
same,T/C,NCI-H1975 xenograft; 5 mg/kg oral gavage once daily,85%
same,TGI,NCI-H1975 xenograft; 5 mg/kg oral gavage once daily,15%
same,Tumor relative volume (x ± S),NCI-H1975 xenograft; 5 mg/kg oral gavage once daily,9.8 ± 0.6
same,Tumor volume (x ± S),NCI-H1975 xenograft; 5 mg/kg oral gavage once daily,1889 mm^3 and 1889 ± 60 mm^3
same,T/C,NCI-H1975 xenograft; [3],72%
same,TGI,NCI-H1975 xenograft; [3],28%
same,Tumor relative volume (x ± S),NCI-H1975 xenograft; [3],8.4 ± 1.0
same,Tumor volume (x ± S),NCI-H1975 xenograft; [3],1647 mm^3 and 1647 ± 243 mm^3
same,T/C,NCI-H1975 xenograft; [4],50%
same,TGI,NCI-H1975 xenograft; [4],50%
same,Tumor relative volume (x ± S),NCI-H1975 xenograft; [4],5.8 ± 0.3
same,Tumor volume (x ± S),NCI-H1975 xenograft; [4],1141 mm^3 and 1141 ± 112 mm^3
same,Body weight change,NCI-H1975 xenograft; [4],slight decrease in body weight
same,T/C,NCI-H1975 xenograft; [5],31%
same,TGI,NCI-H1975 xenograft; [5],69%
same,Tumor relative volume (x ± S),NCI-H1975 xenograft; [5],3.6 ± 0.2
same,Tumor volume (x ± S),NCI-H1975 xenograft; [5],709 mm^3 and 709 ± 47 mm^3
same,Body weight change,NCI-H1975 xenograft; [5],slight decrease in body weight
